Data from publication PMC11995724, “Antibiotic target discovery by integrated phenotypic and activity-based profiling of electrophilic fragments” (Cell chemical biology, 2025).

Experiment: in vitro
Conditions: human, hek293t cells

SMILES | viability at 48 h, 25 µM [%]
C=CC(=O)N(Cc1ccc(Cl)cc1Cl)CC1CCC(O)C1 (stereo not drawn) [1-B04, N-[(2,4-dichlorophenyl)methyl]-N-[(3-hydroxycyclopentyl)methyl]prop-2-enamide] | 26.4
C=CC(=O)N(C)Cc1cc(-c2ccccc2)[nH]n1 [1-B05, N-methyl-N-[(5-phenyl-1H-pyrazol-3-yl)methyl]prop-2-enamide] | 92.7
C=CC(=O)NC1CC2CCC(C1)S2 (stereo not drawn) [1-B06, N-{8-thiabicyclo[3.2.1]octan-3-yl}prop-2-enamide] | 84.7
C=CC(=O)NC(Cc1ccccc1)c1ncco1 (stereo not drawn) [1-B07, N-[1-(1,3-oxazol-2-yl)-2-phenylethyl]prop-2-enamide] | 118
C=CC(=O)NC(C)c1cc2cnccc2o1 (stereo not drawn) [1-B08, N-(1-{furo[3,2-c]pyridin-2-yl}ethyl)prop-2-enamide] | 80.6
C=CC(=O)N1CCOC(Cn2nc(C)nc2C)C1 (stereo not drawn) [1-B09, 1-{2-[(3,5-dimethyl-1H-1,2,4-triazol-1-yl)methyl]morpholin-4-yl}prop-2-en-1-one] | 161
C=CC(=O)N1CCC[C@H]1C(=O)Nc1cccc(C)n1 [1-B10, (2S)-N-(6-methylpyridin-2-yl)-1-(prop-2-enoyl)pyrrolidine-2-carboxamide] | 77.1
C=CC(=O)N(Cc1c(C)cccc1C)C1CCc2nc(C)nn2C1 (stereo not drawn) [1-B11, N-[(2,6-dimethylphenyl)methyl]-N-{2-methyl-5H,6H,7H,8H-[1,2,4]triazolo[1,5-a]pyridin-6-yl}prop-2-enamide] | 114
C=CC(=O)N(C)C1CCN(c2cnccn2)CC1 [1-B12, N-methyl-N-[1-(pyrazin-2-yl)piperidin-4-yl]prop-2-enamide] | 70.1
C=CC(=O)NC(c1ccccc1)c1nc(C)no1 (stereo not drawn) [1-B13, N-[(3-methyl-1,2,4-oxadiazol-5-yl)(phenyl)methyl]prop-2-enamide] | 109
C=CC(=O)Nc1c(OC)nc(Cl)nc1OC [1-B14, N-(2-chloro-4,6-dimethoxypyrimidin-5-yl)prop-2-enamide] | 60.2
C=CC(=O)N(Cc1sc(C)nc1C)[C@@H](C)[C@H]1COC(C)(C)O1 [1-B15, N-[(1S)-1-[(4S)-2,2-dimethyl-1,3-dioxolan-4-yl]ethyl]-N-[(2,4-dimethyl-1,3-thiazol-5-yl)methyl]prop-2-enamide] | 90
C=CC(=O)Nc1nc(Cc2ccccc2)c(C)s1 [1-B16, N-(4-benzyl-5-methyl-1,3-thiazol-2-yl)prop-2-enamide] | 73.2
C=CC(=O)N(Cc1ccc(=O)n(C)c1)C1CCCc2ccccc21 (stereo not drawn) [1-B17, N-[(1-methyl-6-oxo-1,6-dihydropyridin-3-yl)methyl]-N-(1,2,3,4-tetrahydronaphthalen-1-yl)prop-2-enamide] | 112
C=CC(=O)N1CCN(Cc2cc(C)no2)CC1 [1-B18, 1-{4-[(3-methyl-1,2-oxazol-5-yl)methyl]piperazin-1-yl}prop-2-en-1-one] | 70.8
C=CC(=O)N1CCC(NC(C)=O)C1 (stereo not drawn) [1-B19, N-[1-(prop-2-enoyl)pyrrolidin-3-yl]acetamide] | 114
C=CC(=O)N1CCNC(=O)C1Cc1nc2ccccc2o1 (stereo not drawn) [1-B20, 3-[(1,3-benzoxazol-2-yl)methyl]-4-(prop-2-enoyl)piperazin-2-one] | 82.9
C=CC(=O)NC1c2cccc(F)c2CCC1C (stereo not drawn) [1-B21, N-(5-fluoro-2-methyl-1,2,3,4-tetrahydronaphthalen-1-yl)prop-2-enamide] | 92.8
C=CC(=O)NC(Cc1nc(C)no1)c1ccccc1 (stereo not drawn) [1-B22, N-[2-(3-methyl-1,2,4-oxadiazol-5-yl)-1-phenylethyl]prop-2-enamide] | 68.5
C=CC(=O)NCC1SCCS1 [1-C03, N-[(1,3-dithiolan-2-yl)methyl]prop-2-enamide] | 87.6

SMILES | viability at 48 h, 25 µM [%]
C=CC(=O)Nc1ccc(OC)cc1S(C)(=O)=O [1-C04, N-(2-methanesulfonyl-4-methoxyphenyl)prop-2-enamide] | 65.8
C=CC(=O)NC(CO)c1nc(C)no1 (stereo not drawn) [1-C05, N-[2-hydroxy-1-(3-methyl-1,2,4-oxadiazol-5-yl)ethyl]prop-2-enamide] | 71.4
C=CC(=O)N1CCC(C(=O)N2CCc3ccc([N+](=O)[O-])cc32)CC1 [1-C06, 1-[4-(6-nitro-2,3-dihydro-1H-indole-1-carbonyl)piperidin-1-yl]prop-2-en-1-one] | 49.9
C=CC(=O)NCc1coc(-c2cccs2)n1 [1-C07, N-{[2-(thiophen-2-yl)-1,3-oxazol-4-yl]methyl}prop-2-enamide] | 70.1
C=CC(=O)NCc1c(C)nc2ccccn12 [1-C08, N-({2-methylimidazo[1,2-a]pyridin-3-yl}methyl)prop-2-enamide] | 82.8
C=CC(=O)NCc1ccnc(N2CCOCC2)c1 [1-C09, N-{[2-(morpholin-4-yl)pyridin-4-yl]methyl}prop-2-enamide] | 70.7
C=CC(=O)NCc1ccc(F)c(F)c1 [1-C10, N-[(3,4-difluorophenyl)methyl]prop-2-enamide] | 49.1
C=CC(=O)Nc1c2c(cc3c1CCC3)CCC2 [1-C11, N-(1,2,3,5,6,7-hexahydro-s-indacen-4-yl)prop-2-enamide] | 45.8
C=CC(=O)N1CCCCC1 [1-C12, 1-(piperidin-1-yl)prop-2-en-1-one] | 98.4
C=CC(=O)NCc1cnc(-c2ccc(C(F)(F)F)cc2)s1 [1-C13, N-({2-[4-(trifluoromethyl)phenyl]-1,3-thiazol-5-yl}methyl)prop-2-enamide] | 75.8
C=CC(=O)NC1CCN(c2ccc(Cl)c(Cl)c2)C1 (stereo not drawn) [1-C14, N-[1-(3,4-dichlorophenyl)pyrrolidin-3-yl]prop-2-enamide] | 52.9
C=CC(=O)N(C)Cc1c(C)nn(C)c1Cl [1-C15, N-[(5-chloro-1,3-dimethyl-1H-pyrazol-4-yl)methyl]-N-methylprop-2-enamide] | 86.1
C=CC(=O)Nc1ccc(F)cc1C(C)(F)F [1-C16, N-[2-(1,1-difluoroethyl)-4-fluorophenyl]prop-2-enamide] | 137
C=CC(=O)Nc1cc(NC(=O)C2CC3CCC2CC3)ccc1F (stereo not drawn) [1-C17, N-[4-fluoro-3-(prop-2-enamido)phenyl]bicyclo[2.2.2]octane-2-carboxamide] | 2.94
C=CC(=O)N1CCC(n2cc(C(N)=O)nn2)C1 (stereo not drawn) [1-C18, 1-[1-(prop-2-enoyl)pyrrolidin-3-yl]-1H-1,2,3-triazole-4-carboxamide] | 79.6
C=CC(=O)Nc1ccc2c(c1)N(CC#N)CC2 [1-C19, N-[1-(cyanomethyl)-2,3-dihydro-1H-indol-6-yl]prop-2-enamide] | 94.7
C=CC(=O)Nc1ccc(OCCC)c(C)c1 [1-C20, N-(3-methyl-4-propoxyphenyl)prop-2-enamide] | 80.1
C=CC(=O)Nc1ccc(C(C)Sc2ccccc2)cc1 (stereo not drawn) [1-C21, N-{4-[1-(phenylsulfanyl)ethyl]phenyl}prop-2-enamide] | 69.7
C=CC(=O)Nc1ccc2c(c1)SCC(=O)N2 [1-C22, N-(3-oxo-3,4-dihydro-2H-1,4-benzothiazin-7-yl)prop-2-enamide] | 109
